{"source": "patent US20110124606A1", "about": "“SENSE-IMPROVING AGENT” (SNOW BRAND MILK PRODUCTS CO., LTD., priority 2007, published 2011)", "key": {"PC-12 cells": {"test_system": "PC-12 cells", "assay": "Cell differentiation-promoting activity: PC-12 cells cultured in culture supernatant of treated 3T3 cells", "format": "cell-based", "conditions": "supernatant of 3T3 cells cultured two days with 200 μg/l", "experimental": "3T3 cells, which is fibroblast cell strain known to be present in skin, were cultured for two days under the condition that the milk-derived phospholipid-containing composition of Example 1 or 2 was added at a concentration of 200 μg/l (Example 1: Group A, Example 2: Group B). As a control, 3T3 cells were cultured for two days without adding the milk-derived phospholipid-containing composition obtained in Example 1 or 2 (Group C). PC-12 cells (nerve model cells) were cultured using the culture supernatant thereof, and morphological differentiation of the PC-12 cells was observed. […] It was confirmed that 95% or more of the cells were differentiated when using the culture supernatant of the group A or B. On the other hand, the PC-12 cells were not differentiated when using the culture supernatant of the group C. No differentiation was observed through an optical microscope even though the experiment was repeated several times. It was thus confirmed that the milk-derived phospholipid-containing compositions obtained in Examples 1 and 2 promote differentiation of the PC-12 cells which was nerve model cells.\n3T3 cells, which is fibroblast cell strain known to be present in skin, were cultured for two days under the condition that the sphingomyelin obtained in Example 3 was added at a concentration of 200 μg/l (group A). […]"}, "[1]": {"test_system": "Healthy elderly persons who suffered deterioration in sensation in the hands", "assay": "Pain sensation in palm and foot by Algesiometer, oral intake of sphingomyelin (Test Example 5)", "format": "in vivo, human", "conditions": "for Hand Foot bottom sensation measurement (before intake): Average value / Hand sensation measurement (before intake): Average value / Hand Foot bottom sensation measurement (after intake for 12 weeks): Average value / Hand sensation measurement (after intake for 12 weeks): Average value: Normal 0 to Deterioration III 3 points; for Hand Foot bottom sensation measurement (before intake): Deterioration I / Hand Foot bottom sensation measurement (before intake): Deterioration II / Hand Foot bottom sensation measurement (before intake): Deterioration III / Hand Foot bottom sensation measurement (before intake): Normal / Hand sensation measurement (before intake): Deterioration I / Hand sensation measurement (before intake): Deterioration II / Hand sensation measurement (before intake): Deterioration III / Hand sensation measurement (before intake): Normal / Hand Foot bottom sensation measurement (after intake for 12 weeks): Deterioration I / Hand Foot bottom sensation measurement (after intake for 12 weeks): Deterioration II / Hand Foot bottom sensation measurement (after intake for 12 weeks): Deterioration III / Hand Foot bottom sensation measurement (after intake for 12 weeks): Normal / Hand sensation measurement (after intake for 12 weeks): Deterioration I / Hand sensation measurement (after intake for 12 weeks): Deterioration II / Hand sensation measurement (after intake for 12 weeks): Deterioration III / Hand sensation measurement (after intake for 12 weeks): Normal: subjects per criterion, 15 per group; for sensation in the palm and the bottom of the foot (in words): 12 weeks", "experimental": "The pain sensation was evaluated using five pins that differ in thickness in combination with five fulcrum positions. The thinnest pin 1 was rolled along the medial side of the arm, and the subject was asked about the degree of normal pain sensation. The pin 1 was then rolled along the palm and the bottom of the foot while sequentially changing the holder fulcrum position to determine the fulcrum position at which the same pain sensation degree as the first pain sensation occurred. The Algesiometer is designed so that the pain sensations with same degree occur between when rolling the pin 1 (fulcrum: 50 g) along the medial side of the arm and when rolling the pin 2 (fulcrum: 50 g) along the palm. The pain sensation was evaluated as follows in accordance with the instruction manual. The pain sensation was evaluated by points, and the average points were calculated. Normal (0 points): The same pain sensation occurred when rolling the pin 2 (fulcrum: 50 g). Deterioration I (1 point): The same pain sensation occurred when rolling the pin 1 (fulcrum: 50 g). Deterioration II (2 points): The same pain sensation occurred when rolling the pin 1 (fulcrum: 60 g): Deterioration III (3 points): The same pain sensation occurred when rolling the pin 1 (fulcrum: 70 g): Healthy elderly persons (average age: 75±3) who suffered deterioration in sensation in the hands were divided into three groups (one group: 15 subjects). The subjects took the sphingomyelin obtained in Example 4 in an amount of 0 mg, 4 mg, or 8 mg for 12 weeks. The pain sensation in the palm and the arch of the foot was measured with 4 criteria (normal, deteriorations I, II, and III) before the intake and after the intake for 12 weeks with reference to the pain sensation in the medial side of the arm using a pain/touch-pressure sensation measuring device (“Algesiometer” manufactured by Intercross Ltd.) in accordance with the instruction manual. After the intake for 12 weeks, a questionnaire survey on improvement in sensation in the hands was carried out to each elderly person. The measurement method and the evaluation method are the same as those employed in Test Example 4."}, "[2]": {"test_system": "Healthy elderly persons who suffered deterioration in sensation in the hands", "assay": "Questionnaire survey on improvement in sensation, oral intake of sphingomyelin (Test Example 5)", "format": "in vivo, human", "conditions": "subjects of 15", "experimental": "Healthy elderly persons (average age: 75±3) who suffered deterioration in sensation in the hands were divided into three groups (one group: 15 subjects). The subjects took the sphingomyelin obtained in Example 4 in an amount of 0 mg, 4 mg, or 8 mg for 12 weeks. The pain sensation in the palm and the arch of the foot was measured with 4 criteria (normal, deteriorations I, II, and III) before the intake and after the intake for 12 weeks with reference to the pain sensation in the medial side of the arm using a pain/touch-pressure sensation measuring device (“Algesiometer” manufactured by Intercross Ltd.) in accordance with the instruction manual. After the intake for 12 weeks, a questionnaire survey on improvement in sensation in the hands was carried out to each elderly person. The measurement method and the evaluation method are the same as those employed in Test Example 4."}}}
{"substance": "sphingomyelin [Example 3]", "values": [{"measurement": "morphological differentiation of PC-12 cells", "setting": "PC-12 cells", "value": "highly differentiated"}, {"measurement": "differentiation rate of PC-12 cells", "setting": "PC-12 cells; optical microscope", "value": "≥ 94", "unit": "%"}]}
{"substance": "sphingomyelin [Example 4]", "values": [{"measurement": "Hand Foot bottom sensation measurement (before intake): Average value", "setting": "[1]; 4 mg group", "value": 2.1, "unit": "points"}, {"measurement": "Hand sensation measurement (before intake): Average value", "setting": "[1]; 4 mg group", "value": 2.1, "unit": "points"}, {"measurement": "Hand Foot bottom sensation measurement (before intake): Deterioration I", "setting": "[1]; 4 mg group", "value": 3}, {"measurement": "Hand Foot bottom sensation measurement (before intake): Deterioration II", "setting": "[1]; 4 mg group", "value": 7}, {"measurement": "Hand Foot bottom sensation measurement (before intake): Deterioration III", "setting": "[1]; 4 mg group", "value": 5}, {"measurement": "Hand Foot bottom sensation measurement (before intake): Normal", "setting": "[1]; 4 mg group", "value": 0}, {"measurement": "Hand sensation measurement (before intake): Deterioration I", "setting": "[1]; 4 mg group", "value": 3}, {"measurement": "Hand sensation measurement (before intake): Deterioration II", "setting": "[1]; 4 mg group", "value": 7}, {"measurement": "Hand sensation measurement (before intake): Deterioration III", "setting": "[1]; 4 mg group", "value": 5}, {"measurement": "Hand sensation measurement (before intake): Normal", "setting": "[1]; 4 mg group", "value": 0}, {"measurement": "Hand Foot bottom sensation measurement (before intake): Average value", "setting": "[1]; 8 mg group", "value": 2.3, "unit": "points"}, {"measurement": "Hand sensation measurement (before intake): Average value", "setting": "[1]; 8 mg group", "value": 2.3, "unit": "points"}, {"measurement": "Hand Foot bottom sensation measurement (before intake): Deterioration I", "setting": "[1]; 8 mg group", "value": 2}, {"measurement": "Hand Foot bottom sensation measurement (before intake): Deterioration II", "setting": "[1]; 8 mg group", "value": 7}, {"measurement": "Hand Foot bottom sensation measurement (before intake): Deterioration III", "setting": "[1]; 8 mg group", "value": 6}, {"measurement": "Hand Foot bottom sensation measurement (before intake): Normal", "setting": "[1]; 8 mg group", "value": 0}, {"measurement": "Hand sensation measurement (before intake): Deterioration I", "setting": "[1]; 8 mg group", "value": 2}, {"measurement": "Hand sensation measurement (before intake): Deterioration II", "setting": "[1]; 8 mg group", "value": 6}, {"measurement": "Hand sensation measurement (before intake): Deterioration III", "setting": "[1]; 8 mg group", "value": 7}, {"measurement": "Hand sensation measurement (before intake): Normal", "setting": "[1]; 8 mg group", "value": 0}, {"measurement": "sensation in the palm and the bottom of the foot (in words)", "setting": "[1]; intake 4 mg", "value": "tended to be improved"}, {"measurement": "Hand Foot bottom sensation measurement (after intake for 12 weeks): Average value", "setting": "[1]; intake 4 mg", "value": 1.7, "unit": "points"}, {"measurement": "Hand sensation measurement (after intake for 12 weeks): Average value", "setting": "[1]; intake 4 mg", "value": 1.5, "unit": "points"}, {"measurement": "Hand Foot bottom sensation measurement (after intake for 12 weeks): Deterioration I", "setting": "[1]; intake 4 mg", "value": 5}, {"measurement": "Hand Foot bottom sensation measurement (after intake for 12 weeks): Deterioration II", "setting": "[1]; intake 4 mg", "value": 7}, {"measurement": "Hand Foot bottom sensation measurement (after intake for 12 weeks): Deterioration III", "setting": "[1]; intake 4 mg", "value": 2}, {"measurement": "Hand Foot bottom sensation measurement (after intake for 12 weeks): Normal", "setting": "[1]; intake 4 mg", "value": 1}, {"measurement": "Hand sensation measurement (after intake for 12 weeks): Deterioration I", "setting": "[1]; intake 4 mg", "value": 5}, {"measurement": "Hand sensation measurement (after intake for 12 weeks): Deterioration II", "setting": "[1]; intake 4 mg", "value": 6}, {"measurement": "Hand sensation measurement (after intake for 12 weeks): Deterioration III", "setting": "[1]; intake 4 mg", "value": 2}, {"measurement": "Hand sensation measurement (after intake for 12 weeks): Normal", "setting": "[1]; intake 4 mg", "value": 2}, {"measurement": "sensation in the palm and the bottom of the foot (in words)", "setting": "[1]; intake 8 mg", "value": "significantly improved"}, {"measurement": "Hand Foot bottom sensation measurement (after intake for 12 weeks): Average value", "setting": "[1]; intake 8 mg", "value": 1.6, "unit": "points"}, {"measurement": "Hand sensation measurement (after intake for 12 weeks): Average value", "setting": "[1]; intake 8 mg", "value": 1.3, "unit": "points"}, {"measurement": "Hand Foot bottom sensation measurement (after intake for 12 weeks): Deterioration I", "setting": "[1]; intake 8 mg", "value": 7}, {"measurement": "Hand Foot bottom sensation measurement (after intake for 12 weeks): Deterioration II", "setting": "[1]; intake 8 mg", "value": 4}, {"measurement": "Hand Foot bottom sensation measurement (after intake for 12 weeks): Deterioration III", "setting": "[1]; intake 8 mg", "value": 3}, {"measurement": "Hand Foot bottom sensation measurement (after intake for 12 weeks): Normal", "setting": "[1]; intake 8 mg", "value": 1}, {"measurement": "Hand sensation measurement (after intake for 12 weeks): Deterioration I", "setting": "[1]; intake 8 mg", "value": 7}, {"measurement": "Hand sensation measurement (after intake for 12 weeks): Deterioration II", "setting": "[1]; intake 8 mg", "value": 3}, {"measurement": "Hand sensation measurement (after intake for 12 weeks): Deterioration III", "setting": "[1]; intake 8 mg", "value": 2}, {"measurement": "Hand sensation measurement (after intake for 12 weeks): Normal", "setting": "[1]; intake 8 mg", "value": 3}, {"measurement": "Foot sensation: Improved", "setting": "[2]; intake 4 mg for 12 weeks", "value": 5}, {"measurement": "Foot sensation: Same", "setting": "[2]; intake 4 mg for 12 weeks", "value": 9}, {"measurement": "Foot sensation: Worsened", "setting": "[2]; intake 4 mg for 12 weeks", "value": 1}, {"measurement": "Hand sensation: Improved", "setting": "[2]; intake 4 mg for 12 weeks", "value": 6}, {"measurement": "Hand sensation: Same", "setting": "[2]; intake 4 mg for 12 weeks", "value": 7}, {"measurement": "Hand sensation: Worsened", "setting": "[2]; intake 4 mg for 12 weeks", "value": 2}, {"measurement": "Foot sensation: Improved", "setting": "[2]; intake 8 mg for 12 weeks", "value": 8}, {"measurement": "Foot sensation: Same", "setting": "[2]; intake 8 mg for 12 weeks", "value": 7}, {"measurement": "Foot sensation: Worsened", "setting": "[2]; intake 8 mg for 12 weeks", "value": 0}, {"measurement": "Hand sensation: Improved", "setting": "[2]; intake 8 mg for 12 weeks", "value": 10}, {"measurement": "Hand sensation: Same", "setting": "[2]; intake 8 mg for 12 weeks", "value": 4}, {"measurement": "Hand sensation: Worsened", "setting": "[2]; intake 8 mg for 12 weeks", "value": 1}]}
